According to PubChem BioAssay (NCI):
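Exposure lasted 48 hours, with cells grown in 96-well plates and compounds tested at five concentrations. At the TGI there is no net growth.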

What was measured:
Assay in all cases: NCI-60 cell line screen, 48 h
786-0 renal = system: 786-0 renal
A498 renal = system: A498 renal
A549 NSCLC = system: A549 NSCLC
ACHN renal = system: ACHN renal
BT-549 breast = system: BT-549 breast
CAKI-1 renal = system: CAKI-1 renal
CCRF-CEM leukemia = system: CCRF-CEM leukemia
COLO 205 colon = system: COLO 205 colon
DU-145 prostate = system: DU-145 prostate
EKVX NSCLC = system: EKVX NSCLC
HCC-2998 colon = system: HCC-2998 colon
HCT-116 colon = system: HCT-116 colon
HCT-15 colon = system: HCT-15 colon
HL-60(TB) leukemia = system: HL-60(TB) leukemia
HOP-62 NSCLC = system: HOP-62 NSCLC
HOP-92 NSCLC = system: HOP-92 NSCLC
HS 578T breast = system: HS 578T breast
HT29 colon = system: HT29 colon
IGROV1 ovarian = system: IGROV1 ovarian
K-562 leukemia = system: K-562 leukemia
KM12 colon = system: KM12 colon
LOX IMVI melanoma = system: LOX IMVI melanoma
M14 melanoma = system: M14 melanoma
MALME-3M melanoma = system: MALME-3M melanoma
MCF7 breast = system: MCF7 breast
MDA-MB-231 breast = system: MDA-MB-231 breast
MDA-MB-435 = system: MDA-MB-435
MDA-N = system: MDA-N
MOLT-4 leukemia = system: MOLT-4 leukemia
NCI-H226 lung = system: NCI-H226 lung
NCI-H23 lung = system: NCI-H23 lung
NCI-H460 lung = system: NCI-H460 lung
NCI-H522 lung = system: NCI-H522 lung
NCI/ADR-RES ovarian = system: NCI/ADR-RES ovarian
OVCAR-3 ovarian = system: OVCAR-3 ovarian
OVCAR-4 ovarian = system: OVCAR-4 ovarian
OVCAR-5 ovarian = system: OVCAR-5 ovarian
OVCAR-8 ovarian = system: OVCAR-8 ovarian
PC-3 prostate = system: PC-3 prostate
RPMI-8226 leukemia = system: RPMI-8226 leukemia
RXF 393 renal = system: RXF 393 renal
SF-268 CNS = system: SF-268 CNS
SF-295 CNS = system: SF-295 CNS
SF-539 CNS = system: SF-539 CNS
SK-MEL-2 melanoma = system: SK-MEL-2 melanoma
SK-MEL-28 melanoma = system: SK-MEL-28 melanoma
SK-MEL-5 melanoma = system: SK-MEL-5 melanoma
SK-OV-3 ovarian = system: SK-OV-3 ovarian
SN12C renal = system: SN12C renal
SNB-19 CNS = system: SNB-19 CNS
SNB-75 CNS = system: SNB-75 CNS
SR leukemia = system: SR leukemia
SW-620 colon = system: SW-620 colon
T-47D breast = system: T-47D breast
TK-10 renal = system: TK-10 renal
U251 CNS = system: U251 CNS
UACC-257 melanoma = system: UACC-257 melanoma
UACC-62 melanoma = system: UACC-62 melanoma
UO-31 renal = system: UO-31 renal

Measured: TGI

[N-]=[N+]=NCC1OC(n2cnc3c(N)ncnc32)C2OC12 (centres undefined)
> 100 µM: 786-0 renal | A498 renal | A549 NSCLC | ACHN renal | BT-549 breast | CAKI-1 renal | CCRF-CEM leukemia | COLO 205 colon | DU-145 prostate | EKVX NSCLC | HCC-2998 colon | HCT-116 colon | HCT-15 colon | HL-60(TB) leukemia | HOP-62 NSCLC | HOP-92 NSCLC | HS 578T breast | HT29 colon | IGROV1 ovarian | K-562 leukemia | KM12 colon | LOX IMVI melanoma | M14 melanoma | MALME-3M melanoma | MCF7 breast | MDA-MB-231 breast | MDA-MB-435 | MDA-N | MOLT-4 leukemia | NCI-H226 lung | NCI-H23 lung | NCI-H460 lung | NCI-H522 lung | NCI/ADR-RES ovarian | OVCAR-3 ovarian | OVCAR-4 ovarian | OVCAR-5 ovarian | OVCAR-8 ovarian | PC-3 prostate | RPMI-8226 leukemia | RXF 393 renal | SF-268 CNS | SF-295 CNS | SF-539 CNS | SK-MEL-2 melanoma | SK-MEL-28 melanoma | SK-MEL-5 melanoma | SK-OV-3 ovarian | SN12C renal | SNB-19 CNS | SNB-75 CNS | SR leukemia | SW-620 colon | T-47D breast | TK-10 renal | U251 CNS | UACC-257 melanoma | UACC-62 melanoma | UO-31 renal
